“And” between values parts separate entries of the source, which are not always exact repeats. Equal values may be shown once.
System: WT ELIC
Assay: Fluorescence stopped-flow liposomal Tl+ flux assay, symmetric liposomes
Format: biochemical, Erwinia chrysanthemi
Conditions: for Avg (stopped-flow fluorescence quenching rate): average of experiments; for Rate (stopped-flow fluorescence quenching rate): single experiments
Description: The fluorescence sequential-mixing stopped-flow liposomal flux measurements were carried using an SX20 stopped-flow spectrofluorometer (Applied Photophysics) and Pro-Data SX software[13],[30]. 7.5 mg of the respective lipid mixture (POPC, 1:1 POPC: POPE, 1:1 POPC:POPG, 3:1 POPC:POPE, 3:1 POPC:POPG, 2:1:1 POPC:POPE:POPG) was dried in a glass vial to a thin film under a constant stream of N2. The lipids were then further dried under vacuum in a desiccator overnight. The following day the lipids were hydrated in 500 µl of reconstitution buffer (100 mM NaNO3, 10 mM HEPES, pH 7) (Buffer R), 250 µl of 75 mM 8-Aminonaphthalene-1,3,6-Trisulfonic Acid (ANTS, ThermoFisher Scientific) in buffer R, and doped with ~18 mg of CHAPS (Anatrace). The mixture was vortexed and then sonicated with heat until completely solubilized. Following the sonication, the solution was brought to RT then 3.5 µl of 6.7 mg/ml ELIC in Buffer A with 0.02% DDM was added (3 µg per mg of lipid). This combined solution was incubated at RT for 30 min, followed by the addition of 1 ml of 1:1 v/v SM-2 BioBeads in Buffer R and an additional 250 µl of 75 mM ANTS in Buffer R. This mixture was incubated at RT for 2.5 hr with gentle mixing. The liposome suspension was then extruded with an Avanti mini-extruder and 0.1 µm membrane (30×). The extruded liposomes were stored at 13 °C overnight with gentle rotation. The next day, the liposomes were diluted to 2.5 mL using assay buffer (140 mM NaNO3, 10 mM HEPES, pH 7) (Stopped-flow Buffer A), loaded into a PD-10 desalting column (Cytiva), eluted with 3 mL of Stopped-flow Buffer A and subsequently diluted 5-fold with Stopped-flow Buffer A.
Using propylamine as the agonist, the assay and analysis was carried out as previously described[13],[30]. ELIC-containing liposomes were first mixed 1:1 with Buffer A containing 2× the concentration of propylamine. After a variable delay of 10 ms to 25 s, the sample was then mixed 1:1 with a quenching buffer (90 mM NaNO3, 50 mM TlNO3, 10 mM HEPES, pH 7), and ANTS fluorescence (ex. 360 nm, fluorescence above 420 nm) was recorded for 1 s. For each delay time, 5 repeat measurements were obtained. The data were collected using Applied Photophysics Pro-Data SX software. The fluorescence quenching traces were fit to a stretched exponential (Eq. 2a) and the rate of Tl^+ influx was determined at 2 ms (Eq. 2b).2a Ft=F∞+F0−F∞⋅e^−t/τ^β 2b kt=β/τ⋅2ms/τ^(β−1) where Ft, F∞, F0 are the fluorescence at time t, final fluorescence and initial fluorescence. τ is the time constant, β the stretched exponential factor, and kt the calculated rate of Tl^+ influx at 2 ms. The time course of desensitization was also fit to a double exponential and a weighted time constant was calculated as was done for the patch-clamp data using Origin 2019b. All replicates were taken from independent samples.

[1] = WT in PC liposomes, 0.3 mM PA, delay time 0
[2] = WT in PC liposomes, 1 mM PA, delay time 0

CCCN [propylamine]
Avg (stopped-flow fluorescence quenching rate) (WT in 2:1:1 PC:PE:PG liposomes, 3 mM PA, delay time 5): 145.791
Avg (stopped-flow fluorescence quenching rate) (WT in 2:1:1 PC:PE:PG liposomes, 3 mM PA, delay time 10): 107.502
Avg (stopped-flow fluorescence quenching rate) (WT in 2:1:1 PC:PE:PG liposomes, 3 mM PA, delay time 25): 38.6642
Rate (stopped-flow fluorescence quenching rate) (WT in 2:1:1 PC:PE:PG liposomes, 10 mM PA, delay time 0): 0
Avg (stopped-flow fluorescence quenching rate) (WT in 2:1:1 PC:PE:PG liposomes, 10 mM PA, delay time 0.025): 169.086
Avg (stopped-flow fluorescence quenching rate) (WT in 2:1:1 PC:PE:PG liposomes, 10 mM PA, delay time 0.05): 180.798
Avg (stopped-flow fluorescence quenching rate) (WT in 2:1:1 PC:PE:PG liposomes, 10 mM PA, delay time 0.05 [sic] (between 0.25 and 1)): 198.043
Rate (stopped-flow fluorescence quenching rate) (WT in 2:1:1 PC:PE:PG liposomes, 10 mM PA, delay time 0.05 [sic] (between 0.25 and 1), listed as PA): 249.635 and 148.719 and 195.774
Avg (stopped-flow fluorescence quenching rate) (WT in 2:1:1 PC:PE:PG liposomes, 10 mM PA, delay time 0.1): 165.345
Avg (stopped-flow fluorescence quenching rate) (WT in 2:1:1 PC:PE:PG liposomes, 10 mM PA, delay time 0.25): 213.572
Rate (stopped-flow fluorescence quenching rate) (WT in 2:1:1 PC:PE:PG liposomes, 10 mM PA, delay time 0.25, listed as PA): 256.17 and 144.253 and 240.291
Avg (stopped-flow fluorescence quenching rate) (WT in 2:1:1 PC:PE:PG liposomes, 10 mM PA, delay time 1): 169.644
Rate (stopped-flow fluorescence quenching rate) (WT in 2:1:1 PC:PE:PG liposomes, 10 mM PA, delay time 1, listed as PA): 228.219 and 122.935 and 157.778
Avg (stopped-flow fluorescence quenching rate) (WT in 2:1:1 PC:PE:PG liposomes, 10 mM PA, delay time 2.5): 155.074
Avg (stopped-flow fluorescence quenching rate) (WT in 2:1:1 PC:PE:PG liposomes, 10 mM PA, delay time 5): 103.359
Avg (stopped-flow fluorescence quenching rate) (WT in 2:1:1 PC:PE:PG liposomes, 10 mM PA, delay time 10): 60.9022
Avg (stopped-flow fluorescence quenching rate) (WT in 2:1:1 PC:PE:PG liposomes, 10 mM PA, delay time 25): 14.6606
Rate (stopped-flow fluorescence quenching rate) (WT in 2:1:1 PC:PE:PG liposomes, 10 mM PA, delay time 25, listed as PA): 13.7363 and 15.821 and 14.4245
Rate (stopped-flow fluorescence quenching rate) (WT in 2:1:1 PC:PE:PG liposomes, 30 mM PA, delay time 0): 0
Avg (stopped-flow fluorescence quenching rate) (WT in 2:1:1 PC:PE:PG liposomes, 30 mM PA, delay time 0.025): 74.8381
Avg (stopped-flow fluorescence quenching rate) (WT in 2:1:1 PC:PE:PG liposomes, 30 mM PA, delay time 0.05): 63.4545
Avg (stopped-flow fluorescence quenching rate) (WT in 2:1:1 PC:PE:PG liposomes, 30 mM PA, delay time 0.1): 63.448
Avg (stopped-flow fluorescence quenching rate) (WT in 2:1:1 PC:PE:PG liposomes, 30 mM PA, delay time 0.25): 66.7765
Avg (stopped-flow fluorescence quenching rate) (WT in 2:1:1 PC:PE:PG liposomes, 30 mM PA, delay time 0.5): 62.7383
Avg (stopped-flow fluorescence quenching rate) (WT in 2:1:1 PC:PE:PG liposomes, 30 mM PA, delay time 1): 67.601
Avg (stopped-flow fluorescence quenching rate) (WT in 2:1:1 PC:PE:PG liposomes, 30 mM PA, delay time 2.5): 40.183
Avg (stopped-flow fluorescence quenching rate) (WT in 2:1:1 PC:PE:PG liposomes, 30 mM PA, delay time 5): 15.7901
Avg (stopped-flow fluorescence quenching rate) (WT in 2:1:1 PC:PE:PG liposomes, 30 mM PA, delay time 10): 23.9739
Avg (stopped-flow fluorescence quenching rate) (WT in 2:1:1 PC:PE:PG liposomes, 30 mM PA, delay time 25): 10.034
Rate (stopped-flow fluorescence quenching rate) (WT in 2:1:1 PC:PE:PG liposomes, 30 mM PA, delay time 25, listed as PA): 8.132 and 11.9359
Avg (stopped-flow fluorescence quenching rate) [1]: 0
Rate (stopped-flow fluorescence quenching rate) [1]: 0
Avg (stopped-flow fluorescence quenching rate) (WT in PC liposomes, 0.3 mM PA, delay time 0.01): 0.08537
Rate (stopped-flow fluorescence quenching rate) (WT in PC liposomes, 0.3 mM PA, delay time 0.01, listed as PA): 0.07068 and 0.08871 and 9.67E-02
Avg (stopped-flow fluorescence quenching rate) (WT in PC liposomes, 0.3 mM PA, delay time 0.025): 0.09939
Avg (stopped-flow fluorescence quenching rate) (WT in PC liposomes, 0.3 mM PA, delay time 0.05): 0.06401
Avg (stopped-flow fluorescence quenching rate) (WT in PC liposomes, 0.3 mM PA, delay time 0.1): 0.08141
Avg (stopped-flow fluorescence quenching rate) (WT in PC liposomes, 0.3 mM PA, delay time 0.25): 0.0402
Rate (stopped-flow fluorescence quenching rate) (WT in PC liposomes, 0.3 mM PA, delay time 0.25, listed as PA): 0.04925 and 0.03838 and 0.03298
Avg (stopped-flow fluorescence quenching rate) (WT in PC liposomes, 0.3 mM PA, delay time 0.5): 0.1212
Rate (stopped-flow fluorescence quenching rate) (WT in PC liposomes, 0.3 mM PA, delay time 0.5, listed as PA): 0.0905 and 0.1754 and 0.09759
Avg (stopped-flow fluorescence quenching rate) (WT in PC liposomes, 0.3 mM PA, delay time 1): 0.07413
Avg (stopped-flow fluorescence quenching rate) (WT in PC liposomes, 0.3 mM PA, delay time 2.5): 0.08146
Rate (stopped-flow fluorescence quenching rate) (WT in PC liposomes, 0.3 mM PA, delay time 2.5, listed as PA): 0.09799 and 0.04957 and 0.09682
Avg (stopped-flow fluorescence quenching rate) (WT in PC liposomes, 0.3 mM PA, delay time 5): 0.09461
Avg (stopped-flow fluorescence quenching rate) [2]: 0
Rate (stopped-flow fluorescence quenching rate) [2]: 0
Avg (stopped-flow fluorescence quenching rate) (WT in PC liposomes, 1 mM PA, delay time 0.01): 0.0808
Rate (stopped-flow fluorescence quenching rate) (WT in PC liposomes, 1 mM PA, delay time 0.01, listed as PA): 0.07542 and 0.09146 and 0.07551
Avg (stopped-flow fluorescence quenching rate) (WT in PC liposomes, 1 mM PA, delay time 0.025): 0.1635
Avg (stopped-flow fluorescence quenching rate) (WT in PC liposomes, 1 mM PA, delay time 0.05): 0.08808
Rate (stopped-flow fluorescence quenching rate) (WT in PC liposomes, 1 mM PA, delay time 0.05, listed as PA): 0.09304 and 0.1089 and 0.06236

— PMC9668969 (Nature Communications, 2022)
